Assay results published in paper PMC4766415 (Nature Communications, 2016).

What was measured:
[1] = tested on: T1, TTR in human plasma (WT-TTR and V30M-TTR); assay: [125I]T4 competition in human plasma, native gel electrophoresis; type: binding; details: 1 mM; plasma from normal (WT-TTR) and V30M-TTR FAP patient; 1 h RT
T1 construct: human plasma from a normal (WT-TTR) and from an FAP patient carrying the V30M-TTR mutation; from tissue; host or cells: human plasma of normal donors and of V30M-TTR carriers
Text: Error bars indicate s.e.m. (n=3). […] Error bars indicate s.e.m. (n=3).

TTR tetramer = tested on: T2, TTR tetramer; assay: TTR stabilization after oral administration in humans (immunoturbidity, urea); type: in vivo, human; details: for FOI (TTR tetramer after 48 h urea/TTR tetramer at time 0): 4.8 M urea
T2 construct: Plasma TTR was then immunoprecipitated; from tissue; host or cells: human plasma
Experimental: TTR stabilization in vivo was measured using an immunoturbidimetric assay as in Fig. 4c. The fraction of initial tetramer concentration (FOI) was determined in triplicate for each sample (FOI=TTR tetramer after 48 h urea treatment/TTR tetramer at time 0 in the presence of urea).
For TTR stabilization analysis, frozen plasma samples were thawed on ice. Samples were then mixed with a 8 M urea solution (in 40 mM sodium phosphate pH 7.4 and 80 mM KCl) to a final urea concentration of 4.8 M. One aliquot was taken immediately after adding urea (time 0) and the rest were incubated for 48 h at controlled RT conditions. After the incubation time points (0 or 48 h), TTR was crosslinked with 40 mM glutaraldehyde (2.5 M stock solution). The samples were quickly vortexed and incubated for 4 min at RT. Then, NaBH4 was added to a final concentration of 48 mM to quench the reaction. Samples were transferred to a measuring tube and read by immunoturbidity after 5 min at RT. Immunoturbidity was measured in a Beckman Coulter AU680 ISE instrument (Beckman Coulter), using the Olympus OSR6175 reagent and calibrator ODR3029 (Olympus) according to the manufacturer's instructions. Analysis was performed in triplicates. Informed consent was obtained from all subjects and the protocol was approved by the Ethics Committee of Hospital Vall d'Hebron (Barcelona).

[2] = no reference given; cited from earlier work
WT-TTR [3] = target: T3, WT-TTR (Homo sapiens, UniProt P02766); assay: TTR stabilization in urea, Trp fluorescence; type: biochemical; set-up: made in house; host or cells: Escherichia coli BL21(DE3), pET expression system; details: 72 h; for WT-tetramer unfolded: WT-TTR 1.8 μM, 6.5 M urea, RT
Experimental: In urea, TTR tetramer dissociation precedes monomer unfolding, a process easily tracked by monitoring changes in intrinsic Trp fluorescence.
At high denaturant concentrations, the rate of TTR tetramer dissociation is linked irreversibly to monomer unfolding. […] Intrinsic fluorescence was recorded after 72 h.
Urea was added to attain a range of final concentrations (0–9 M) and the samples were incubated for 72 h at RT. Fluorescence intensity measurements were performed on a Jasco FP-8200 Spectrofluorometer. Trp fluorescence was obtained by exciting the samples at 280 nm and emission was collected from 300 to 400 nm. The fluorescence intensity ratio 355/335 nm was plotted against urea concentration as a sensor of folded protein, which for TTR in urea is equivalent to tetramer integrity. […] The fraction of unfolded TTR was measured and calculated as above. The TTR fluorescence after incubation at RT for 72 h in 9 M urea was considered to correspond to that of the unfolded state.

A25T-TTR = A25T-TTR aggregation inhibition, turbidity, pH 5.0; details: four molar equivalents (15 μM); A25T-TTR 3.6 μM; pH 5.0, 37 °C, 22 h
[4] = tested on: Rat Schwannoma cells (RN22); assay: Caspase-3 activation by Y78F-TTR oligomers in RN22 cells; details: Y78F-TTR aggregates 2 μM formed with 20 μM compound; 24 h exposure
[5] = cited from earlier work
AC16 cells = assay: TTR-induced cytotoxicity in AC16 cells, resazurin reduction assay; type: cell-based, human; details: 16 μM compound, 8 μM TTR; 24 h
Text: Error bars indicate s.e.m. […] Error bars indicate s.e.m. (n=4). […] Error bars indicate s.e.m. (n=3).

WT-TTR [6] = target: T3, WT-TTR; assay: Isothermal titration calorimetry, WT-TTR
Y78F-TTR = Y78F-TTR (Homo sapiens, UniProt P02766, Y98F); assay: Y78F-TTR aggregation inhibition, turbidity at 340 nm, pH 4.2
[7] = tested on: T4, tetrameric TTR in human plasma; assay: Ex vivo plasma TTR stability by immunoturbidity after urea denaturation; type: biochemical; details: 4.8 M urea, 48 h; pooled plasma of healthy volunteers
T4 construct: Plasma TTR was then immunoprecipitated; from tissue; host or cells: human plasma
Text: Stabilization of plasma TTR under physiological conditions was confirmed using an immunoturbidity assay[29] (Fig. 4c). […] After urea treatment, samples were crosslinked with glutaraldehyde and the concentration of TTR determined by immunoturbidity. Treatment with urea and glutaraldehyde decreases immunoturbidity signal due to the extensive modification of denatured TTR monomers by glutaraldehyde, hampering antibody recognition. As TTR denaturation is preceded by tetramer dissociation, the signal roughly correlates with tetramer stability.
A pool of lithium-heparin plasma samples from healthy volunteers stored at −80 °C was thawed on ice. Partially clotted particles were removed by spinning the samples for 2 min at 10,000g. […] Addition volume was limited to maximum 1.5% (v/v) of sample. A control in which DMSO vehicle was added was included in the experimental design. Samples were then mixed with a urea solution (8 M in 50 mM potassium phosphate pH 7.0, 100 mM NaCl, 1 mM dithiothreitol, 1 mM EDTA) to a final urea concentration of 4.8 M, and incubated for various time points at controlled RT conditions. […] Samples were transferred to a measuring tube and read by immunoturbidity after 5 min at RT. Immunoturbidity was measured in a Siemens Automate Dimension EXL200 instrument, using the Siemens Prealbumin (PALB) reagent and calibrator according to the manufacturer's instructions. […]

[8] = general model, two ligand-binding sites

WT-tetramer unfolded (WT-TTR [3]; 2 molar equivalents): 33.8% | WT-tetramer unfolded (WT-TTR [3]; 4 molar equivalents): 8% | TTR remaining in the native state (WT-TTR [3]; 10 molar equivalents, 8 M urea): more than 80% | TΔs1 binding entropy (WT-TTR [6]; first ligand): 1.8 kcal/mol | Δh1 site-specific binding enthalpy (WT-TTR [6]; first ligand): -8.7 kcal/mol | ΔH1 overall binding enthalpy (WT-TTR [6]; [8]): -8.7 kcal/mol | ΔH2 overall binding enthalpy (WT-TTR [6]; [8]): -18.4 kcal/mol | β2 overall association constant (WT-TTR [6]; [8]): 7.9 × 10^14 M^−2 | TΔs2 binding entropy (WT-TTR [6]; second ligand): 0.2 kcal/mol | Δh2 site-specific binding enthalpy (WT-TTR [6]; second ligand): -9.7 kcal/mol | RA (%): percent reduction of TTR aggregation rate at high inhibitor concentration (Y78F-TTR): 89.13%
Compound: Cc1ccc(C(=O)c2cc(O)c(O)c([N+](=O)[O-])c2)cc1 [tolcapone]
radioactive T4-TTR band in the presence of compound [1]: no longer visible | FOI (TTR tetramer after 48 h urea/TTR tetramer at time 0) (TTR tetramer; HV1, 200 mg oral, plasma 2 h after dose): 0.78±0.04 | FOI (TTR tetramer after 48 h urea/TTR tetramer at time 0) (TTR tetramer; HV2, 2 × 200 mg oral, plasma 2 h after last dose): 0.98±0.02 | TTR stabilization (TTR tetramer; single dose of 200 mg, plasma 13.6 μM at Tmax): 359% | half-life in plasma [2]: 2 to 3 h | reduction of A25T-TTR aggregation (turbidity, Fig. 1d) (A25T-TTR): 40% | reduction in Caspase-3 activation [4]: 27.8%±6.1 | blood–brain barrier crossing [5]: able to cross the blood–brain barrier | effect on WT-TTR and V122I-TTR induced reduction in cell viability (AC16 cells): rescued this toxic effect | stabilization of plasma TTR against urea denaturation [7]: stabilized TTR in a dose-responsive manner
